Data: ChEMBL document CHEMBL4177611, “Discovery of aminocyclohexene analogues as selective and orally bioavailable hNav1.7 inhibitors for analgesia” (Bioorg Med Chem Lett, 2017)

Experiments:
[1] = Volume of distribution at steady state in Sprague-Dawley rat at 3 mg/kg administered as single iv bolus by LC-MS/MS analysis; format: ADME, organism-based; conditions: in vivo, read-out: Vdss
[2] = molecular target: Sodium channel protein type 9 subunit alpha (Homo sapiens, UniProt Q15858); test: Inhibition of human Nav1.7 expressed in CHO-K1 cells at -120 mV holding potential incubated over 5 mins measured at 15 secs interval by Qpatch clamp assay; format: cell-based
[3] = Clearance in Sprague-Dawley rat administered as single iv bolus by LC-MS/MS analysis; format: ADME, organism-based; conditions: in vivo
[4] = Volume of distribution at steady state in Sprague-Dawley rat administered as single iv bolus by LC-MS/MS analysis; format: ADME, organism-based; conditions: in vivo, read-out: Vdss
[5] = AUC in Sprague-Dawley rat at 10 mg/kg administered as single dose via oral gavage by LC-MS/MS analysis; format: ADME, organism-based; conditions: in vivo
[6] = Initial plasma concentration in Sprague-Dawley rat at 3 mg/kg administered as single iv bolus by LC-MS/MS analysis; format: ADME, organism-based
[7] = Clearance in Sprague-Dawley rat at 3 mg/kg administered as single iv bolus by LC-MS/MS analysis; format: ADME, organism-based; conditions: in vivo
[8] = AUC (0 to last) in Sprague-Dawley rat at 3 mg/kg administered as single iv bolus by LC-MS/MS analysis; format: ADME, organism-based; set-up: dose 3 mg/kg, route intravenous, time 0 - last; conditions: in vivo
[9] = Cmax in Sprague-Dawley rat at 10 mg/kg administered as single dose via oral gavage by LC-MS/MS analysis; format: ADME, organism-based; set-up: dose 10 mg/kg, route oral; conditions: in vivo
[10] = Tmax in Sprague-Dawley rat at 10 mg/kg administered as single dose via oral gavage by LC-MS/MS analysis; format: ADME, organism-based; conditions: in vivo
[11] = Half life in Sprague-Dawley rat at 10 mg/kg administered as single dose via oral gavage by LC-MS/MS analysis; format: ADME, organism-based; conditions: in vivo
[12] = AUC (0 to last) in Sprague-Dawley rat at 10 mg/kg administered as single dose via oral gavage by LC-MS/MS analysis; format: ADME, organism-based; set-up: dose 10 mg/kg, route oral, time 0 - last; conditions: in vivo
Rattus norvegicus = test: Unbound AUC (0 to last) in Sprague-Dawley rat at 10 mg/kg administered as single dose via oral gavage by LC-MS/MS analysis; format: ADME, organism-based; conditions: in vivo
[13] = Unbound plasma concentration in Sprague-Dawley rat spinal nerve ligation model at 30 mg/kg administered as single dose via oral gavage measured after 1 hr by LC-MS/MS analysis; format: ADME, organism-based; conditions: in vivo
[14] = Metabolic stability in rat liver microsomes assessed as parent compound remaining at 10 uM measured up to 60 mins in presence of NADPH by LC-MS analysis; format: ADME, microsome; conditions: read-out: Stability
[15] = Metabolic stability in dog liver microsomes assessed as parent compound remaining at 10 uM measured up to 60 mins in presence of NADPH by LC-MS analysis; format: ADME, Canis lupus familiaris, microsome; conditions: read-out: Stability
[16] = Drug metabolism in human liver microsomes assessed as dealkylation by measuring M1 metabolite formation at 10 uM measured up to 60 mins in presence of NADPH by LC-MS analysis relative to total metabolite peak area; format: ADME, microsome; conditions: 1 h
[17] = Drug metabolism in human liver microsomes assessed as oxygenation by measuring M3 metabolite formation at 10 uM measured up to 60 mins in presence of NADPH by LC-MS analysis relative to total metabolite peak area; format: ADME, microsome; conditions: 1 h
[18] = Metabolic stability in human liver microsomes assessed as parent compound remaining at 10 uM measured up to 60 mins in presence of NADPH by LC-MS analysis; format: ADME, microsome; conditions: read-out: Stability
[19] = Drug metabolism in po dosed rat plasma assessed as deethylation by measuring 4-(((1R,6R)-6-amino-2-(4-fluorophenyl)cyclohex-2-enyl)methoxy)-5-chloro-2-fluoro-N-(thiazol-4-yl)benzenesulfonamide metabolite formation; format: ADME, organism-based; conditions: in vivo
[20] = Dissociation constant, pKa of the compound; format: physicochemical
[21] = molecular target: Sodium channel protein type 4 subunit alpha (Homo sapiens, UniProt P35499); format: ADME
[22] = Fraction unbound in human plasma at 2 uM after 4 hrs by LC-MS/MS analysis; format: ADME, cell-free
[23] = Fraction unbound in rat plasma at 2 uM after 4 hrs by LC-MS/MS analysis; format: ADME, cell-free
[24] = Intrinsic clearance in human liver microsomes at 1 uM after 60 mins in presence of NADPH by LC-MS/MS analysis; format: ADME, microsome; conditions: read-out: CLH
[25] = Plasma concentration in Sprague-Dawley rat spinal nerve ligation model at 30 mg/kg administered as single dose via oral gavage measured after 1 hr by LC-MS/MS analysis; format: ADME, organism-based
[26] = Plasma concentration in Sprague-Dawley rat spinal nerve ligation model at 30 mg/kg administered as single dose via oral gavage measured after 2 hrs by LC-MS/MS analysis; format: ADME, organism-based
[27] = Plasma concentration in Sprague-Dawley rat spinal nerve ligation model at 100 mg/kg administered as single dose via oral gavage measured after 4 hrs by LC-MS/MS analysis; format: ADME, organism-based
[28] = Unbound plasma concentration in Sprague-Dawley rat spinal nerve ligation model at 30 mg/kg administered as single dose via oral gavage measured after 2 hrs by LC-MS/MS analysis; format: ADME, organism-based; conditions: in vivo
[29] = Unbound plasma concentration in Sprague-Dawley rat spinal nerve ligation model at 100 mg/kg administered as single dose via oral gavage measured after 1 hr by LC-MS/MS analysis; format: ADME, organism-based; conditions: in vivo
[30] = Unbound plasma concentration in Sprague-Dawley rat spinal nerve ligation model at 100 mg/kg administered as single dose via oral gavage measured after 2 hrs by LC-MS/MS analysis; format: ADME, organism-based; conditions: in vivo
[31] = Unbound plasma concentration in Sprague-Dawley rat spinal nerve ligation model at 100 mg/kg administered as single dose via oral gavage measured after 4 hrs by LC-MS/MS analysis; format: ADME, organism-based; conditions: in vivo
[32] = Drug uptake in Sprague-Dawley rat dorsal root ganglion at 100 mg/kg, ig measured after 1.5 hrs by LC-MS/MS analysis; format: ADME, organism-based; conditions: in vivo, po
[33] = Drug metabolism in Sprague-Dawley rat dorsal root ganglion assessed as 4-(((1R,6R)-6-amino-2-(4-fluorophenyl)cyclohex-2-enyl)methoxy)-5-chloro-2-fluoro-N-(thiazol-4-yl)benzenesulfonamide formation at 100 mg/kg, ig measured after 1.5 hrs by LC-MS/MS analysis; format: ADME, organism-based; conditions: in vivo, po
Cytochrome P450 2C9 = Cytochrome P450 2C9 (Homo sapiens, UniProt P11712)
Cytochrome P450 2C19 = Cytochrome P450 2C19 (Homo sapiens, UniProt P33261)
Cytochrome P450 2D6 = Cytochrome P450 2D6 (Homo sapiens, UniProt P10635)
Cytochrome P450 3A4 = Cytochrome P450 3A4 (Homo sapiens, UniProt P08684)
[34] = molecular target: Voltage-gated inwardly rectifying potassium channel KCNH2 (Homo sapiens, UniProt Q12809)
physchem [35] = conditions: buffer, pH 7.4
physchem [36] = conditions: buffer, pH 7.4; remark: listed apart in the source

Sequence of Voltage-gated inwardly rectifying potassium channel KCNH2 (Q12809 whole entry): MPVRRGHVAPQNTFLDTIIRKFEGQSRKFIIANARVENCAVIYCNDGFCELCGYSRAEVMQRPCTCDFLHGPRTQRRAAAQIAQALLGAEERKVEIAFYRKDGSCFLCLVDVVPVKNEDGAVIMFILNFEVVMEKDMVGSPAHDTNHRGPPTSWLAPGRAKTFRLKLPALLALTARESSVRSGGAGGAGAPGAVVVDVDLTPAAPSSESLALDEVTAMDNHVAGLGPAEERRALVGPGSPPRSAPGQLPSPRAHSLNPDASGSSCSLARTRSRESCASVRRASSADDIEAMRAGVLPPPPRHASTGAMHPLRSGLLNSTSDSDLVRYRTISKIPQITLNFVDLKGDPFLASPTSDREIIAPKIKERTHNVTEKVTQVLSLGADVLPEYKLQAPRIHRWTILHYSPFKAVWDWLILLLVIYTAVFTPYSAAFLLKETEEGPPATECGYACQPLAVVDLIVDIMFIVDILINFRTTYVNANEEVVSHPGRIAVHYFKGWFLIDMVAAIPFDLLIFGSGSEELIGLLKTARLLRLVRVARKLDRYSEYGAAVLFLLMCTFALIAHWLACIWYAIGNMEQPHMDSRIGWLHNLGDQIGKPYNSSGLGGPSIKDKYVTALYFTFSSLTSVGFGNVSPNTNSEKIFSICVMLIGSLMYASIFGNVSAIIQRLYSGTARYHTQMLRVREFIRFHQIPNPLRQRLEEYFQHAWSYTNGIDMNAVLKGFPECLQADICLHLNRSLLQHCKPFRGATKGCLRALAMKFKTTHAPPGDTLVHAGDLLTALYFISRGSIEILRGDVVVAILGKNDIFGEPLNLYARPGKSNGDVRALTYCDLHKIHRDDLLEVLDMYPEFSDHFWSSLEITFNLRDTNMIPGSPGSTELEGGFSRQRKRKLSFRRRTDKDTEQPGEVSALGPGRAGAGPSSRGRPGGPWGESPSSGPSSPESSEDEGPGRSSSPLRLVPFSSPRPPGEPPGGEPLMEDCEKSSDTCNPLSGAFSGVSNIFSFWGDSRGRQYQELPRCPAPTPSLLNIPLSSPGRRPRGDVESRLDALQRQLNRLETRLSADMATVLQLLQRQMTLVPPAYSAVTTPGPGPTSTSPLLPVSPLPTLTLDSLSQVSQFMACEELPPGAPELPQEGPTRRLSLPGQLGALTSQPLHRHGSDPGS
Sequence of Cytochrome P450 2C19 (P33261 whole entry): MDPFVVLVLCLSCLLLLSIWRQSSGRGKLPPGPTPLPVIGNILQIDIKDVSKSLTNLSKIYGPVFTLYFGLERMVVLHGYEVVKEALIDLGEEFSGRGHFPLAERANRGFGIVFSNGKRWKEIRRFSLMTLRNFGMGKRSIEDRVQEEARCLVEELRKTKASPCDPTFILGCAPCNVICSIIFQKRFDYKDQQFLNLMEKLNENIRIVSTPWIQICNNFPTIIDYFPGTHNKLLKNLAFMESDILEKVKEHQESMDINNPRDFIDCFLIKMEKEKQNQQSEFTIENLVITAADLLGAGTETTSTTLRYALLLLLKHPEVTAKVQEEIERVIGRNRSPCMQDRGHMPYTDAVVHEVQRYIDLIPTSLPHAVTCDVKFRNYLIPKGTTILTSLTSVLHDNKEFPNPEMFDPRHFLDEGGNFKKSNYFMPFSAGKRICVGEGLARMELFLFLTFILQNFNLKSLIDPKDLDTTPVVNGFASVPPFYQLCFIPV
Sequence of Cytochrome P450 2C9 (P11712 whole entry): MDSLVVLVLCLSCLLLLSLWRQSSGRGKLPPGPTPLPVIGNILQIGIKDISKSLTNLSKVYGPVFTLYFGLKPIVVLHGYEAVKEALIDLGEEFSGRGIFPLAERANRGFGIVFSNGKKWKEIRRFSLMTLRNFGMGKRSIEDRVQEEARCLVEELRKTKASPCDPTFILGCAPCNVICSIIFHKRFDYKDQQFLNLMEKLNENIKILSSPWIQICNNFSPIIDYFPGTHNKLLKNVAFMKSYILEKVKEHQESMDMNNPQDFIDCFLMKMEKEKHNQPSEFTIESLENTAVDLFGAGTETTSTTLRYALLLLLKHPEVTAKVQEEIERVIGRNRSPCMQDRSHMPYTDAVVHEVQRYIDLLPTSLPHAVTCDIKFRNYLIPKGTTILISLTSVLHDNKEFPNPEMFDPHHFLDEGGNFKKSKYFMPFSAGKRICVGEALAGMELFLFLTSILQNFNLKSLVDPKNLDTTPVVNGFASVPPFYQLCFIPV
Sequence of Cytochrome P450 3A4 (P08684 whole entry): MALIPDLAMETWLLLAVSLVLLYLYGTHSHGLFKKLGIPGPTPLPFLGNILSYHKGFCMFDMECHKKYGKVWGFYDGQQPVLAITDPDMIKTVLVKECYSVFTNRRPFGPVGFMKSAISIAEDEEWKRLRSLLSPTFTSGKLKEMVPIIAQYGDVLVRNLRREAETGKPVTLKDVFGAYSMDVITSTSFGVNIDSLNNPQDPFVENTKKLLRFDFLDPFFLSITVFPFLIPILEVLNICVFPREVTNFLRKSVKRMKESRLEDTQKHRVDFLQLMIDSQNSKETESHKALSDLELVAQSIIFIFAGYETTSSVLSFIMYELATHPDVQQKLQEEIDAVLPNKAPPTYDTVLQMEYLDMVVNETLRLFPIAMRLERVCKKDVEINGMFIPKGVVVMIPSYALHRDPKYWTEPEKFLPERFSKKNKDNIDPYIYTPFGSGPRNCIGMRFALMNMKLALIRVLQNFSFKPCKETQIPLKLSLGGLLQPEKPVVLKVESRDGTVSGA
Sequence of Cytochrome P450 2D6 (P10635 whole entry): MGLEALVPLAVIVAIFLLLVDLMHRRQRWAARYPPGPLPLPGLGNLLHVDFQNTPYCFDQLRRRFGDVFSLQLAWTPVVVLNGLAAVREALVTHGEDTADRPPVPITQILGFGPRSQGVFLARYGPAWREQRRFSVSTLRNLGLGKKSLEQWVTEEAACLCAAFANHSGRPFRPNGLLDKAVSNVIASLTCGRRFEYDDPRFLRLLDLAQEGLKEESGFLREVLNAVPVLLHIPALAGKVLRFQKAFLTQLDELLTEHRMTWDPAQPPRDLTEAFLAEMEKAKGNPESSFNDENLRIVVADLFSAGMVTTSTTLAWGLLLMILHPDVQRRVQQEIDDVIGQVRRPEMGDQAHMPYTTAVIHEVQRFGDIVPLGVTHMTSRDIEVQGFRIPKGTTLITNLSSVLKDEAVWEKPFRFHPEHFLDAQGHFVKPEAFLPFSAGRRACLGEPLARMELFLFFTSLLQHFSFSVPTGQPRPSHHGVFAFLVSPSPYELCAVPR
Sequence of Sodium channel protein type 4 subunit alpha (P35499 whole entry): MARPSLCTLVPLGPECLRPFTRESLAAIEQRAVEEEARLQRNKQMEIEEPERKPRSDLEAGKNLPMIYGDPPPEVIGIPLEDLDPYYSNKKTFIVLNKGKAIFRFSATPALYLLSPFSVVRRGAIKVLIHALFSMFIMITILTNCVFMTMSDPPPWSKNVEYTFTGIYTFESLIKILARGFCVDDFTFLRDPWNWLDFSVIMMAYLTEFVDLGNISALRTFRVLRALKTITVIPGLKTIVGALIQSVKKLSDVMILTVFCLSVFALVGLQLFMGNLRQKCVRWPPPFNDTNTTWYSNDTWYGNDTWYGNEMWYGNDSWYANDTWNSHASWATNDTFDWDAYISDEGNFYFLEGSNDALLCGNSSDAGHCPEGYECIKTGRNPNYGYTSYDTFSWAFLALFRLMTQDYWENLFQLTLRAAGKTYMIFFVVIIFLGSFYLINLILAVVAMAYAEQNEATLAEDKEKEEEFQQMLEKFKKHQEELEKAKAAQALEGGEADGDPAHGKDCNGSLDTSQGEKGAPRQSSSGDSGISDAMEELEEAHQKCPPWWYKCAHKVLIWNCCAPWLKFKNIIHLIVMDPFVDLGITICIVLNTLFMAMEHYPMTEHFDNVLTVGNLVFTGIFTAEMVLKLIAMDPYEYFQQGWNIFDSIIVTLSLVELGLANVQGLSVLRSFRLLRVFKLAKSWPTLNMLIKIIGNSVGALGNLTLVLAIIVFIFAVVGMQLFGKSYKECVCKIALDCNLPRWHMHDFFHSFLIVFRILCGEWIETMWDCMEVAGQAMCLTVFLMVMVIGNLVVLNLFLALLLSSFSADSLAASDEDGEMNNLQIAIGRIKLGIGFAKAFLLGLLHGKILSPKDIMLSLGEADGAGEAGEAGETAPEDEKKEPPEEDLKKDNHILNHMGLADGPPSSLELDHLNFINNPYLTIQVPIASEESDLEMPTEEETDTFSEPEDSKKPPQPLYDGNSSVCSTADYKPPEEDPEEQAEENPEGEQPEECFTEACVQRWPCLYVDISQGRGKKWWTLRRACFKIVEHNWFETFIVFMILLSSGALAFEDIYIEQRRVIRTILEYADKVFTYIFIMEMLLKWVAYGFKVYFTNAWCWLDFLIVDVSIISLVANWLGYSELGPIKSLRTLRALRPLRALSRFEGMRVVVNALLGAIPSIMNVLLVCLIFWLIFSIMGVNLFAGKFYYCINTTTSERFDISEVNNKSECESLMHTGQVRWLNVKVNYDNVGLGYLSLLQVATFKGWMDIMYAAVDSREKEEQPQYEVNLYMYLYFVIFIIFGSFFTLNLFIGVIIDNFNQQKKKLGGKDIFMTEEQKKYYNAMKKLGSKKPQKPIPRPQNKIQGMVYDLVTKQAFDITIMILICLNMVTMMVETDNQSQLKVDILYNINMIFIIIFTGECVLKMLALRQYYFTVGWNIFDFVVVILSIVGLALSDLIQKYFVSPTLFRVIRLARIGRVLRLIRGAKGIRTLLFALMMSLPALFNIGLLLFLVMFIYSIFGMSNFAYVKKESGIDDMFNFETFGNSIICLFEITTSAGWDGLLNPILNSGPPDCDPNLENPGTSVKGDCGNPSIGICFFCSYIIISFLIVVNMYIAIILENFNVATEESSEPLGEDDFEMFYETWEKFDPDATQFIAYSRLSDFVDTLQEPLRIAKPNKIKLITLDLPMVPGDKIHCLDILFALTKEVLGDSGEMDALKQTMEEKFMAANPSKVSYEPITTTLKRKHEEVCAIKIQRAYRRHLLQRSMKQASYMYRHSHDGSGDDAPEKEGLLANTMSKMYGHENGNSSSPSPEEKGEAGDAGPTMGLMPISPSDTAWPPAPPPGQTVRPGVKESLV

Vd [1]: 4.63 L/kg
IC50 [2]: 0.034 µM
clearance [3]: 37 mL/min/kg
Vd [4]: 4.65 L/kg
AUC [5]: 3.04 µM·h
C0 [6]: 1910 nM
clearance [7]: 37 mL/min/kg
AUC(0-t) [8]: 2.44 µM·h
Cmax [9]: 620 nM
Tmax [10]: 1.67 h
half-life [11]: 2.56 h
AUC(0-t) [12]: 3.04 µM·h
fAUClast (Rattus norvegicus): 0.106 µM·h
Cp(f) [13]: 70 nM
remaining at 1 h, 10 µM [14]: 49.7%
remaining at 1 h, 10 µM [15]: 81.2%
Drug metabolism [16]: Metabolite_Detected
Drug metabolism [17]: Metabolite_Detected
remaining at 1 h, 10 µM [18]: 37.6%
Drug metabolism [19]: Metabolite_Detected
pKa [20]: 6.34 to 9.35
IC50 [21]: 25.2 µM
fraction unbound at 4 h, 2 µM [22]: 0.015
fraction unbound at 4 h, 2 µM [23]: 0.035
CLint scaled at 1 µM [24]: 66.9 mL/min/kg
concentration at 1 h [25]: 2010 nM
concentration at 2 h [26]: 2160 nM
concentration at 4 h [27]: 4640 nM
Cp(f) [28]: 75 nM
Cp(f) [29]: 297 nM
Cp(f) [30]: 262 nM
Cp(f) [31]: 163 nM
Drug uptake [32]: 2.6 µM/g
Drug metabolism [33]: 0.5 µM/g
IC50 (Cytochrome P450 2C9): 5.7 µM
IC50 (Cytochrome P450 2C19): > 50 µM
IC50 (Cytochrome P450 2D6): 22 µM
IC50 (Cytochrome P450 3A4): 43.4 µM
logD (physchem [35]): 1.79
solubility thermodynamic (physchem [36]): 26.5 µM
Compound: CCN[C@@H]1CCC=C(c2ccc(F)cc2)[C@H]1COc1cc(F)c(S(=O)(=O)Nc2cscn2)cc1Cl.Cl
IC50 [34]: 4.4 µM
